# Results as given in patent publication US10022376B2 (Pfizer Inc., priority 2014, dated 2018).
# System: rhIFNγ stimulated STAT-3 phosphorylation in the A549 human epithelial cell line
# Experiment: A549 Cell Assay: Inhibition of pSTAT3
# Type: cell-based
# Settings: Homo sapiens; A549 cells
# Description: A549 Cell Assay: Inhibition of pSTAT3
# An assay measuring the efficacy of JAK inhibitors on the functional response of recombinant human interferon γ (rhIFNγ) stimulated STAT-3 phosphorylation in the A549 human epithelial cell line.
# A549 cells (ATCC #CCL-185), were plated at 30,000 cells/well in 96 well flat bottomed tissue culture plates (BD#353072) in 200 μL of growth medium (DMEM, Pfizer media prep, with 10% Fetal Bovine Serum, Sigma #F4135, 2 mM L-Glutamine, Pfizer media prep, 100 U/mL penicillin, Pfizer media prep, and 200 μg/ml streptomycin, Pfizer media prep), and cultured at 37° C., 5% CO2 incubator for 18 hours. Growth medium was removed by vacuum aspiration (V&P Scientific #vp187 bp-60), and 90 μL of pre-warmed assay medium (DMEM with 0.2% BSA, Miltenyi #130-091-376) was added to each well and incubated for 15 minutes at 37° C. 10 μL of vehicle control or test compound (final concentration range of 0.3 nM to 10 μM with 0.1% DMSO) was added to the cells. Plates were incubated at 37° C. for 1 hour. After compound incubation, 10 μL of 220 ng/mL recombinant human IFNγ (R&D Systems #285-IF, final rhIFNγ concentration of 20 ng/mL) was added to the cells and plates were incubated for 30 minutes at 37° C. Wells containing A549 cells, medium with 0.1% DMSO and no rhIFNγ were used as background controls. After rhIFNγ stimulation, media was aspirated from each well and 35 μL/well of iced-cold MSD lysis buffer containing protease and phosphatase inhibitors from Phospho-STAT3 Tyr705 assay kit (Meso-Scale Discovery #K150DID) was added to each well. Plates were incubated at 4° C. with shaking for 30 minutes. Cell lysates were assayed following the MSD Phospho-STAT3 Tyr705 assay kit protocol to detect pSTAT3.
# Data were collected and transformed into percent inhibition and calculated using the following formula: […]
row,IC50 [nM],SMILES
1,433,"CCN(c1ccc(O)cc1CNc1nc(-c2cc(F)c(O)cc2CC(F)(F)F)cc2[nH]nc(C(=O)NC)c12)S(=O)(=O)c1ccccc1 [Example 36, 4-({2-[ethyl(phenylsulfonyl)amino]-5-hydroxybenzyl}amino)-6-[5-fluoro-4-hydroxy-2-(2,2,2-trifluoroethyl)phenyl]-N-methyl-1H-pyrazolo[4,3-c]pyridine-3-carboxamide]"
2,20,"CCc1cc(O)c(F)cc1-c1cc2[nH]nc(-n3cccn3)c2c(NCc2ccccc2N(C)S(C)(=O)=O)n1 [Example 162, N-[2-({[6-(2-Ethyl-5-fluoro-4-hydroxyphenyl)-3-(1H-pyrazol-1-yl)-1H-pyrazolo[4,3-c]pyridin-4-yl]amino}methyl)phenyl]-N-methylmethanesulfonamide]"
3,26.2,"CCc1cc(O)c(F)cc1-c1cc2[nH]nc(-c3ncc[nH]3)c2c(NCc2ccccc2N(C)S(C)(=O)=O)n1 [Example 157, N-[2-({[6-(2-Ethyl-5-fluoro-4-hydroxyphenyl)-3-(1H-imidazol-2-yl)-1H-pyrazolo[4,3-c]pyridin-4-yl]amino}methyl)phenyl]-N-methylmethanesulfonamide]"
4,43.9,"CNC(=O)c1n[nH]c2cc(-c3cc(F)c(O)cc3CC(F)(F)F)nc(NCc3ccccc3N(C)S(=O)(=O)c3cccnc3)c12 [Example 68, 6-[5-fluoro-4-hydroxy-2-(2,2,2-trifluoroethyl)phenyl]-N-methyl-4-({2-[methyl(pyridin-3-ylsulfonyl)amino]benzyl}amino)-1H-pyrazolo[4,3-c]pyridine-3-carboxamide]"
5,110,"CCN(c1ncc(Cl)cc1CNc1nc(-c2cc(F)c(O)cc2CC(F)(F)F)cc2[nH]nc(C(N)=O)c12)S(C)(=O)=O [Example 71, 4-[({5-chloro-2-[ethyl(methylsulfonyl)amino]pyridin-3-yl}methyl)amino]-6-[5-fluoro-4-hydroxy-2-(2,2,2-trifluoroethyl)phenyl]-1H-pyrazolo[4,3-c]pyridine-3-carboxamide]"
6,18.7,"CCc1cc(O)c(F)cc1-c1cc2[nH]nc(-c3nc(C)c[nH]3)c2c(NCc2ccccc2N(C)S(C)(=O)=O)n1 [Example 159, N-[2-({[6-(2-Ethyl-5-fluoro-4-hydroxyphenyl)-3-(4-methyl-1H-imidazol-2-yl)-1H-pyrazolo[4,3-c]pyridin-4-yl]amino}methyl)phenyl]-N-methylmethanesulfonamide]"
7,174,"CNC(=O)c1n[nH]c2cc(-c3cc(F)c(O)cc3CC(F)(F)F)nc(NCc3ccccc3N(C)S(=O)(=O)c3cn[nH]c3)c12 [Example 58, 6-(5-fluoro-4-hydroxy-2-(2,2,2-trifluoroethyl)phenyl)-N-methyl-4-((2-(N-methyl-1H-pyrazole-4-sulfonamido)benzyl)amino)-1H-pyrazolo[4,3-c]pyridine-3-carboxamide]"
8,65.1,"CNC(=O)c1n[nH]c2cc(-c3cc(F)c(O)cc3CC(F)(F)F)nc(NCC(C)C)c12 [Example 16, 6-[5-fluoro-4-hydroxy-2-(2,2,2-trifluoroethyl)phenyl]-N-methyl-4-[(2-methylpropyl)amino]-1H-pyrazolo[4,3-c]pyridine-3-carboxamide]"
9,174,"CNC(=O)c1n[nH]c2cc(-c3cc(F)c(O)cc3CC(F)(F)F)nc(NCC3CCCC3)c12 [Example 17, 4-[(cyclopentylmethyl)amino]-6-[5-fluoro-4-hydroxy-2-(2,2,2-trifluoroethyl)phenyl]-N-methyl-1H-pyrazolo[4,3-c]pyridine-3-carboxamide]"
10,91.6,"CNC(=O)c1n[nH]c2cc(-c3cc(F)c(O)cc3CC(F)(F)F)nc(NCc3ccccc3N(C)S(=O)(=O)c3ccc(C)nc3)c12 [Example 69, 6-[5-fluoro-4-hydroxy-2-(2,2,2-trifluoroethyl)phenyl]-N-methyl-4-[(2-{methyl[(6-methylpyridin-3-yl)sulfonyl]amino}benzyl)amino]-1H-pyrazolo[4,3-c]pyridine-3-carboxamide]"
11,282,"CN(c1ccccc1CNc1nc(-c2cc(F)c(O)cc2C2CC2)cc2[nH]nc(C(N)=O)c12)S(C)(=O)=O [Example 47, 6-(2-cyclopropyl-5-fluoro-4-hydroxyphenyl)-4-({2-[methyl(methylsulfonyl)amino]benzyl}amino)-1H-pyrazolo[4,3-c]pyridine-3-carboxamide]"
12,645,"CN(c1ccc(O)cc1CNc1nc(-c2cc(F)c(O)cc2CC(F)(F)F)cc2[nH]nc(C(N)=O)c12)S(=O)(=O)c1ccccc1 [Example 42, 6-[5-fluoro-4-hydroxy-2-(2,2,2-trifluoroethyl)phenyl]-4-({5-hydroxy-2-[methyl(phenylsulfonyl)amino]benzyl}amino)-1H-pyrazolo[4,3-c]pyridine-3-carboxamide]"
13,86.9,"CCc1cc(O)c(F)cc1-c1cc2[nH]nc(C(=O)NC)c2c(NCc2ccc(O)cc2N(C)S(C)(=O)=O)n1 [Example 29, 6-(2-Ethyl-5-fluoro-4-hydroxyphenyl)-4-({4-hydroxy-2-[methyl (methylsulfonyl)amino]benzyl}amino)-N-methyl-1H-pyrazolo[4,3-c]pyridine-3-carboxamide]"
14,46.3,"CN(c1ccc(Cl)cc1CNc1nc(-c2cc(F)c(O)cc2CC(F)(F)F)cc2[nH]nc(C(N)=O)c12)S(C)(=O)=O [Example 89, 4-({5-chloro-2-[methyl(methylsulfonyl)amino]benzyl}amino)-6-[5-fluoro-4-hydroxy-2-(2,2,2-trifluoroethyl)phenyl]-1H-pyrazolo[4,3-c]pyridine-3-carboxamide]"
15,> 10000,"CN(c1ccc(O)cc1CNc1nc(-c2cc(F)c(O)cc2CC(F)(F)F)nc2[nH]nc(-c3nnc(C4CCN(C(N)=O)CC4)[nH]3)c12)S(C)(=O)=O [Example 167, 4-(5-{6-[5-Fluoro-4-hydroxy-2-(2,2,2-trifluoroethyl)phenyl]-4-({5-hydroxy-2-[methyl(methylsulfonyl)amino]benzyl}amino)-1H-pyrazolo[3,4-d]pyrimidin-3-yl}-4H-1,2,4-triazol-3-yl)piperidine-1-carboxamide]"
16,2870,"CN(c1ccccc1CNc1nc(-c2cc(F)c(O)cc2CC(F)(F)F)nc2[nH]nc(C(N)=O)c12)S(=O)(=O)c1ccccc1 [Example 96, 6-(5-Fluoro-4-hydroxy-2-(2,2,2-trifluoroethyl)phenyl)-4-((2-(N-methylphenylsulfonamido)benzyl)amino)-1H-pyrazolo[3,4-d]pyrimidine-3-carboxamide]"
17,16.2,"CCc1cc(O)c(F)cc1-c1cc2[nH]nc(C(=O)NC)c2c(NCc2ccccc2N(C)S(=O)(=O)CC)n1 [Example 3, 6-(2-ethyl-5-fluoro-4-hydroxyphenyl)-4-({2-[(ethylsulfonyl)(methyl)amino]benzyl}amino)-N-methyl-1H-pyrazolo[4,3-c]pyridine-3-carboxamide]"
18,301,"CCN(c1ccc(O)cc1CNc1nc(-c2cc(F)c(O)cc2CC(F)(F)F)cc2[nH]nc(C(=O)NC)c12)S(C)(=O)=O [Example 34, 4-({2-[ethyl(methylsulfonyl)amino]-5-hydroxybenzyl}amino)-6-[5-fluoro-4-hydroxy-2-(2,2,2-trifluoroethyl)phenyl]-N-methyl-1H-pyrazolo[4,3-c]pyridine-3-carboxamide]"
19,60.9,"CCc1cc(O)c(F)cc1-c1cc2[nH]nc(C(=O)NC)c2c(N[C@@H](C)c2ccccc2N(C)S(C)(=O)=O)n1 [Example 39, 6-(2-Ethyl-5-fluoro-4-hydroxyphenyl)-N-methyl-4-{[(1S)-1-{2-[methyl(methylsulfonyl)amino]phenyl}ethyl]amino}-1H-pyrazolo[4,3-c]pyridine-3-carboxamide]"
20,6.4,"CCc1cc(O)c(F)cc1-c1cc2[nH]nc(C(=O)NC)c2c(NCc2c(F)cccc2N(C)S(C)(=O)=O)n1 [Example 8, 6-(2-ethyl-5-fluoro-4-hydroxyphenyl)-4-({2-fluoro-6-[methyl(methylsulfonyl)amino]benzyl}amino)-N-methyl-1H-pyrazolo[4,3-c]pyridine-3-carboxamide]"
21,46.8,"CCc1cc(O)c(F)cc1-c1cc2[nH]nc(C(=O)NC)c2c(NCc2ccccc2N(CC)S(=O)(=O)CC)n1 [Example 2, 4-({2-[ethyl(ethylsulfonyl)amino]benzyl}amino)-6-(2-ethyl-5-fluoro-4-hydroxyphenyl)-N-methyl-1H-pyrazolo[4,3-c]pyridine-3-carboxamide]"
22,67.4,"CCN(c1ccccc1CNc1nc(-c2cc(F)c(O)cc2CC(F)(F)F)cc2[nH]nc(C(=O)NC)c12)S(=O)(=O)CC [Example 1, 4-({2-[Ethyl(ethylsulfonyl)amino]benzyl}amino)-6-[5-fluoro-4-hydroxy-2-(2,2,2-trifluoroethyl)phenyl]-N-methyl-1H-pyrazolo[4,3-c]pyridine-3-carboxamide]"
23,628,"CNC(=O)c1n[nH]c2cc(-c3cc(F)c(O)cc3CC(F)(F)F)nc(NCc3ccccc3N(C)S(=O)(=O)c3cccc(O)c3)c12 [Example 32, 6-[5-Fluoro-4-hydroxy-2-(2,2,2-trifluoroethyl)phenyl]-4-[(2-{[(3-hydroxyphenyl)sulfonyl](methyl)amino}benzyl)amino]-N-methyl-1H-pyrazolo[4,3-c]pyridine-3-carboxamide]"
